Drawing on patent US7541375B2, “Azole derivatives and pharmaceutical compositions containing them” (Laboratoires Serono SA, priority 2001, dated 2009), this text covers estradiol production and IC50 for one molecule.

SMILES strings stand for the structures. Where only a bound is given, the exact number is not on record here.

The test system of assay [1] is primary rat granulosa cell. The settings on record: compound at 10 nM to 100 nM in the presence of picomolar FSH (2 to 5 picomolar).
Experimental: Cells were plated at 5000, 8,000 and 20,000 cells/well/200 μl of GAB medium on poly-D-lysine coated 96-well tissue culture plates. Plates were incubated at 37° C. in a 5% CO/95% air incubator for 3 days. […] The compound of the invention and picomolar FSH were then added to the cultures. Cells were incubated @ 37° C. in 5% CO2. Three days later, cell supernatants were collected and diluted 1:100 in GAB medium for measurement of estradiol by RIA. The RIA was performed according to manufacturer directions except that an estradiol standard was prepared in absolute ethanol at 100 ng/ml and then further diluted in GAB medium, instead of kit buffer.
For assay [2], the system named is SW 660 cell (ATCC CCL-227). Put plainly: SW 660 cell anti-proliferation assay. The assay is classed as cell-based. The conditions noted are these: SW 660 cells, 2×10^3 cells/well. As for the experimental part: (§1) Compounds of the invention were tested for anti-proliferation activity against colon tumors (Colo205, HT-29, C26 and SW660 cell lines) by procedures described in Example 40 above. 2×10^3 cells/well used.

A further assay has as its system Colon C26 cell. Description: Colon C26 cell anti-proliferation assay. The assay is classed as cell-based, murine. The settings on record: Colon C26 cells, 2×10^3 cells/well. As for the experimental part:
as §1

In assay [3] the test system is Colon 205 cell (ATCC CCL-222). Put plainly: Colon 205 cell anti-proliferation assay. The assay is classed as cell-based. The settings on record: Colon 205 cells, 2×10^3 cells/well. As to the method: as §1
In assay [4] the test system is Breast cancer MCF-7 cells. Description: MCF-7 tumor cell proliferation assay. The assay is classed as cell-based. The conditions noted are these: MCF-7, ATP lite cell proliferation kit.
The subject of the next assay is HT-29 cell (ATCC HTB-38). Description: HT-29 cell anti-proliferation assay. The assay is classed as cell-based. The conditions noted are these: HT-29 cells, 2×10^3 cells/well. As to the method:
as §1

Assay [5] concerns Neuroepithelioma (SK-N-MC cell line; ATCC HTB-10). As for the experimental part: (§2) Breast cancer MCF-7 cells or ovarian cancer OVCAR-3 cells were plated in 96 well Packard white plates at 4×10^3 cells/well and cultured overnight at 37° C. in 5% CO2. The below specified test compounds were serially diluted in 100% DMSO and subsequently added to cells to reach a final concentration of 0.5% DMSO. MCF-7 and OVCAR-3 (ATCC HTB-161) plates were incubated for an additional 4 to 5 days respectively at 37° C. and 5% CO2 and cell proliferation was quantitated using the ATP lite cell proliferation kit (Packard).
(§3) (R) 4-iodo-benzoic acid 1-imidazol-1-yl methyl-2-phenoxy-ethyl ester (Example No. 1) was tested for anti-proliferation activity against additional tumor cell types as specified below by procedures described in Example 39 above. American Type Culture Collection (ATCC) deposit numbers are indicated below for many of the tested cell types. Results express, as follows, the concentration of compound of the invention (μM) required to inhibit the proliferation of the tumor cells by 50 percent relative untreated controls (i.e. IC50 (μM)).

Assay [6] deals with Kidney Adeno Carcinoma (ACHN cell line; ATCC CRL-1611). As to the method: as §2, §3
For assay [7], the system named is Colon Adeno Carcinoma (Grade II) (HT-29 cell line; ATCC HTB-38). The settings on record: HT-29 cell line (Example 42). As for the experimental part: as §2, §3
Assay [8] relates to Pancreatic Epithelioid Carcinoma (PANC-1 cell line; ATCC CRL-1469). As to the method:
as §2, §3

The test system of assay [9] is Breast Adeno Carcinoma (MCF-7 cell line). The settings on record: MCF-7 cell line (Example 42). As to the method: as §2, §3
Assay [10] has as its system Lung Carcinoma (A549 cell line; ATCC CCL-185). As to the method:
as §2, §3

The test system of assay [11] is Colon Adeno Carcinoma (DLD-1 cell line; ATCC CCL-221). As to the method:
as §2, §3

The test system of assay [12] is Prostate Adenocarcinoma (PC-3 cell line; ATCC CRL-1435). As for the experimental part: as §2, §3
In assay [13] the test system is Breast Ductal Carcinoma (T47D cell line; ATCC HTB-133). As to the method: as §2, §3
Assay [14] deals with Malignant Melanoma (SK-MEL-5 cell line; ATCC HTB-70). As to the method: as §2, §3
Assay [15] concerns Lung Carcinoma (PC-6 cell line). As to the method:
as §2, §3

The test system of assay [16] is Chronic Myelogenous Leukemia (K562 cell line; ATCC CCL-243). As for the experimental part: as §2, §3
The subject of assay [17] is Pancreatic Carcinoma (MIA PaCa-2 cell line; ATCC CRL-1420). As to the method: as §2, §3
For assay [18], the system named is Kidney Carcinoma (A498 cell line; ATCC HTB-44). As for the experimental part:
as §2, §3

Assay [19] deals with Promyelocytic Leukemia (HL-60 cell line; ATCC CRL-240). As for the experimental part:
as §2, §3

Assay [20] addresses MEK-1 (constitutively active MEK1EE) (Homo sapiens, UniProt Q02750, S218E/S222E). Description: MEK-1 enzyme assay (HTRF, phosphorylation of ERK2K52A). The settings on record: 3 μM ATP, 2 hours room temperature. The assay is classed as biochemical. As for the experimental part:
A 50 μl mixture containing 15 nM constitutively active MEK1EE and 300 nM of ERK2K52A were incubated either in the presence or absence of the compounds of the invention in 1% DMSO and 1× kinase buffer containing 3 μM ATP, […], […], 1 mM DTT and 100 μM Na3VO4 in Wallac 96 well black plates for 2 hours at room temperature. At the end of the incubation the enzyme reaction was quenched by adding 50 μl of assay buffer containing […] Tris-HCl, 50 mM EDTA, 0.1% BSA and a mixture of 1.25 μg/ml europium labeled anti-phosphotyrosine mAb and 5 μg/ml allophycocyanin labeled (APC) anti-GST antibody. Plates were agitated on a plate shaker for 30 minutes and phosphorylation of the ERK2K52A substrate was measured by homogenous time resolved fluorescence (HTRF) at 340 nm excitation and […] emission filters on the VICTOR V fluorescence plate reader. The results are of phosphorylation of ERK-2, with inhibition occurring at the MEK-1 level. Results were as follows for the specified compounds: […]
In general terms: In TR-FRET formats the signal depends on donor and acceptor labels being close together.

Another assay addresses MEK-1/ERK-2 (Homo sapiens, UniProt Q02750, S218E/S222E). Description: MEK-1/ERK-2 enzyme cascade assay (33P incorporation into MBP biotin). It is filed as biochemical. The conditions noted are these: 3 μM ATP, phosphorylation of myelin basic protein. As to the method:
MEK-1/ERK-2 Enzyme Cascade Assay
A 50 μl mixture containing 40 nM of constitutively active MEK1EE, 160 nM of ERK2 and 10 μM MBP biotin were incubated in the presence or absence of the below compound of the invention in 1% DMSO and 1× kinase buffer containing 3 μM ATP, 50 mM Tris-HCl pH 8.0, 10 mM MgCl2, 1 mM DTT, 100 μM Na3VO4 and […] ^33P-γATP in Wallac 96 well white plates for 2 hours at room temperature. At the end of the incubation the enzyme reaction was quenched by adding 200 μl Phosphate buffered saline (PBS) solution containing 1.25 mg/ml Streptavidin SPA beads, 50 mM EDTA and 0.1% Triton 100 and incubated further for 12-14 hours at room temperature. ^33P-γATP incorporation into MBP biotin was measured using the top counts. The assay read-out is phosphorylation of myelin basic protein, which is a representative substrate of ERK-2-phos. This assay is a further confirmatory screen of the assay of Example 38 above.

The test system of assay [21] is ovarian cancer OVCAR-3 cells. Description: OVCAR-3 tumor cell proliferation assay. The conditions noted are these: OVCAR-3, ATP lite cell proliferation kit. It is filed as cell-based.

As usually defined, the IC50 is the concentration needed to halve the response being measured. A higher IC50 goes with lower potency.

Sequence of MEK-1 (constitutively active MEK1EE) (Q02750 whole entry S218E/S222E, species assumed): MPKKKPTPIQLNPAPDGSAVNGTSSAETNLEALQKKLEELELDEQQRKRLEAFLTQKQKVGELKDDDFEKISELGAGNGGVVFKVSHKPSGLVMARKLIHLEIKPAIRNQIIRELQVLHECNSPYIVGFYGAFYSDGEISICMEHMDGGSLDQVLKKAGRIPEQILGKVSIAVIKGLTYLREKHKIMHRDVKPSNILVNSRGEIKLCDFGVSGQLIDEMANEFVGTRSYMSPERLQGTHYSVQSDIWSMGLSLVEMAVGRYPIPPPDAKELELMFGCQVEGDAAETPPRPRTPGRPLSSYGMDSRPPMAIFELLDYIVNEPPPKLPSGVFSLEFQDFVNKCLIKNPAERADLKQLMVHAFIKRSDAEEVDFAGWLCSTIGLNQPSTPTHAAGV
Sequence of MEK-1/ERK-2 (Q02750 whole entry S218E/S222E): as the sequence (Q02750 whole entry S218E/S222E, species assumed) above

Turning to `O=C(OC(COc1ccccc1)Cn1ccnc1)c1ccc(I)cc1` (stereo not drawn) [Example 1, 4-Iodo-benzoic acid 1-imidazol-1-yl methyl-2-phenoxy-ethyl ester], in assay [1], the estradiol production result was “induces estradiol production”. In addition, the IC50 in assay [2] amounted to 2.1 µM; with Colon C26 cell it was 2.33 µM; in assay [3], 1.4 µM; in assay [4], 15 ± 7.1 µM; in the assay with HT-29 cell (ATCC HTB-38), 3.5 µM; in assay [5] it was 6.7 µM. Besides, the IC50 in [6] is more than 100 µM; in assay [7], 4 µM; in assay [8], more than 100 µM; in assay [9] it was 33 µM; in assay [10], 25 µM; in assay [11], 36 µM. Also, the IC50 in [12] came to 24 µM; in assay [13], 11 µM; in assay [14], 11 µM; in assay [15], 43 µM; in assay [16], 33 µM; in assay [17], 3.1 µM. Also, the IC50 in assay [18] turned out to be 54 µM; in assay [19], 3.6 µM; in [20], 0.039 ± 0.012 µM; against MEK-1/ERK-2, 0.036 ± 0.008 µM; in assay [21] it was 25 µM.
